# Data: patent publication US10414721B1, “Inhibitor of endocannabinoid cellular reuptake” (University of Bern, priority 2018, dated 2019)
# “Also recorded” adds a separate entry of the source.
# How the values were obtained:
# BALB/c mice [1] = assay: Complete Freund's adjuvant induced monoarthritis; type: in vivo, mouse
# Protocol: BALB/c mice were anesthetized with xylazine/ketamine (5 and 10 mg/kg, respectively) and subsequently monoarthritis was induced by intra-articular injection of complete Freund's adjuvant (CFA, 40 μL; Sigma-Aldrich, St. Louis, USA) into the right knee joint. The inflammation was allowed to develop for 14 days prior to pharmacological treatments starting at day 15 for 1 or 3 days, respectively. Mechanical sensitivity (allodynia) and knee diameter (edema) were evaluated 1 h post treatment in the ipsilateral and contralateral knees. Articular sensitivity was evaluated using a digital algometer (Bioseb, USA). […] A cut-off force of 300 g was considered to avoid damage in the tissue. The measurements were done in triplicates and the average was considered for the statistical analysis. To evaluate the degree of inflammation, knee diameter was measured in both extremities using a digital micrometer (Mitutoyo, USA). WOBE437 was administered at doses of 2.5, 5 or 10 mg/kg, either as single dose or for 3 days treatment. To evaluate the involvement of CB1 and CB2 receptors, TRPV1 and PPARγ, rimonabant (5 mg/kg, CB1 receptor antagonist/inverse agonist), SR144528 (3 mg/kg, CB2 receptor antagonist/inverse agonist; Cayman Chemical, USA), capsazepine (5 mg/kg, TRPV1 antagonist; Tocris Bioscience, UK) and GW9662 (3 mg/kg, PPARγ antagonist; Tocris Bioscience, UK) were injected 30 min before WOBE437 administration. Indomethacin (5 mg/kg; Sigma-Aldrich, USA) was used as a reference drug (positive control). For all the compounds, dimethylsulfoxide (DMSO) was used as vehicle (20 μL, i.p.).
# [2] = system: cell lines and human whole blood; assay: NAE levels in cell lines and human whole blood; type: cell-based
# From the text: WOBE437, AEA, 2-AG, other lipids and hormones were quantified by LC-MS/MS in different biological matrices (cells, human whole blood, rodent tissues) as reported in Chicca 2017.
# [3] = system: AEA uptake in Neuro2a mouse neuroblastoma cells; assay: AEA uptake inhibition in Neuro2a cells; type: cell-based
# Protocol: (§1) All radioactivity-based AEA and 2-AG uptake and release assays performed in U937, and HMC-1 cells were carried out using two different assay formats as previously reported. AEA and 2-AG uptake assay in Neuro2a and primary mouse cortical neurons were performed with a different method disclosed in Chicca 2017.
# CB1 receptors = assay: Functional CB1 receptors in brain after repeated treatment; type: in vivo, mouse; details: 7 days of daily treatment
# Protocol: (§2) CB1 and CB2 receptor binding assays [^35S]GTPγS assays were performed as previously described. WOBE437 was profiled in more detail in an extended CNS adverse drug reaction screening panel (CEREP).
# [4] = system: main EC degrading enzymes (FAAH, MAGL); assay: Stability towards endocannabinoid degrading enzymes; type: in vitro ADME
# Protocol: FAAH, ABHDs, MAGL and COX-2 activity assays were performed using cell homogenates, human recombinant enzymes and mouse, rat and pig brain homogenates as previously described.
# BALB/c mice [5] = assay: LPS-induced endotoxemia; type: in vivo, mouse; details: 5 and 10 mg/kg
# Protocol: (§3) WOBE437 was initially assessed in a battery of four individual tests typically associated with CB1 receptor activation in mice (nociception, locomotion, body temperature and cataleptic behavior), collectively referred to as the “tetrad”. Dose-response experiments identified 10 mg/kg as the lowest dose to elicit a moderate but complete tetrad in BALB/c mice upon intraperitoneal (i.p.) administration (FIGS. 3A-D). […] To assess whether the WOBE437-induced effects were CB1 receptor-mediated, mice were pre-treated with the selective antagonist/inverse agonist rimonabant (SR1). […] These experiments provided a proof-of-concept for the mechanism of action of WOBE437 as a novel “indirect CB1 receptor agonist”. In subsequent studies, the effects of WOBE437 in pain, inflammatory and anxiety models were investigated. […] Both effects were reversed by SR1.
# (§4) WOBE437 and RX-055 were tested in independent laboratories, in different mouse strains and in multiple (behavioral) models for cannabimimetic, analgesic, anti-inflammatory and anxiolytic-effects in wild-type and phenotypical CB1-KO mice as described in Chicca 2017.
# C57BL6/N mice = assay: Holeboard (HB) test; type: in vivo, mouse; details: 3 mg/kg, 1 h post injection
# Protocol: as §3, §4
# major serine hydrolases = assay: Serine hydrolase activity in vivo; details: mouse
# [6] = Cell penetration (intracellular LC-MS/MS and PAMPA); type: in vitro ADME
# From the text: Cell penetration was further investigated by quantifying intracellular levels of WOBE437 by LC-MS/MS and measuring its physicochemical distribution in the parallel artificial membrane permeability assay (PAMPA).
# BALB/c mice [7] = assay: Open field test in monoarthritic mice; type: in vivo, mouse
# Protocol: Potential motor changes were evaluated in an open field box (40×40×30 cm, Plexiglas). The mice were individually placed in the center and allowed to move freely for 5 min. The locomotion activity was recorded with the OpenFieldTest© and traveled distance was evaluated automatically. After every experiment, the box was cleaned with 70% ethanol to remove odors.
# [8] = system: EC efflux and release in U937 cells; assay: EC efflux and release in U937 cells; type: cell-based
# Protocol: as §1
# [9] = Microsomal clearance, mouse liver microsomes; type: in vitro ADME
# Protocol: Human or mice microsome clearance experiment were carried out as according to a previously describe protocol. Briefly, microsome preparation (0.5 mg/mL) plus cofactor NADPH solution was incubated with 1 μM of WOBE437 in 96-well plates at 37° C. After 1, 3, 6, 9, 15, 25, 35 and 45 min, 40 μL of the preparation was transferred and quenched with 3:1 (v/v) acetonitrile containing internal standards. Samples were then cooled and centrifuged before analysis by LC-MS/MS. Log peak area ratios (test compound peak area/internal standard peak area) are plotted against incubation time using a linear fit. The calculated slope is used to determine the intrinsic clearance. Data are obtained from single experiments measured with multiple time-points.
# CB2 receptor = CB2 receptor (Homo sapiens, UniProt P34972); assay: CB2 receptor binding assay
# CB2 receptor, sequence (P34972 whole entry): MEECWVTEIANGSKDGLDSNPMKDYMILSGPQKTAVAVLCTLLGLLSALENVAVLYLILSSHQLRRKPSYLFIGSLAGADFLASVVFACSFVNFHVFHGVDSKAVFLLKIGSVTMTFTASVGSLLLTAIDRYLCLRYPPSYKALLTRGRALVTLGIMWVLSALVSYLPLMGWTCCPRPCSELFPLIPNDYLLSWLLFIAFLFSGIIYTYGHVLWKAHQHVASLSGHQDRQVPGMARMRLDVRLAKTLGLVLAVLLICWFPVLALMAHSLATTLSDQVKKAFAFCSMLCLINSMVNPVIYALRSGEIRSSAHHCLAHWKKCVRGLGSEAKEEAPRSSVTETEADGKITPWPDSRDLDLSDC
# Protocol: as §2
smiles,measurement,setting,value
"CCCCCCC/C=C/C=C/C(=O)NCCc1ccc(OC)c(OC)c1 [WOBE437, (2E,4E)-N-[2-(3,4-Dimethoxyphenyl)ethyl]dodeca-2,4-dienamide]","antiallodynia and antiinflammatory effects after rimonabant, SR144528 or GW9662 pre-treatment","BALB/c mice [1]; 10 mg/kg i.p., 3 days",fully abolished
same,reduction of inflammation (edema),"BALB/c mice [1]; 10 mg/kg i.p., 3 days",58%
same,reduction in allodynia,"BALB/c mice [1]; 10 mg/kg i.p., 3 days, as compared to contralateral knee",52%
same,knee diameter,"BALB/c mice [1]; 10 mg/kg i.p., 3 days, vehicle 6.5±0.9, contralateral 4.5±0.3",5.3±0.4 mm
same,allodynia after single dose,"BALB/c mice [1]; 10 mg/kg i.p., single dose",significantly decrease allodynia
same,antiallodynia effect after SR144528 (3 mg/kg) or capsazepine (5 mg/kg) pre-treatment,"BALB/c mice [1]; 10 mg/kg i.p., single dose",completely prevented
same,antiallodynia effect after rimonabant or GW9662 pre-treatment,"BALB/c mice [1]; 10 mg/kg i.p., single dose",did not block
same,allodynia and edema,BALB/c mice [1]; 2.5 and 5.0 mg/kg i.p.,did not show any significant changes
same,levels of other NAEs,[2],without altering the levels of other NAEs
same,"Hill slope, AEA uptake",[3]; Neuro2a cells,−0.705
same,inhibition at 1 µM,"[3]; mouse/rat NG108-15, N2a, 2-10 min of incubation",35%
same,inhibition at 1 µM,"[3]; mouse/rat NG108-15, N2a, 15-20 min of incubation",20%
same,IC50,"[3]; mouse/rat NG108-15, N2a, Neuro2a cells",0.055 ± 0.018 µM
same,number of functional CB1 receptors in the brain,CB1 receptors,did not affect
same,stability in the presence of the main EC degrading enzymes,[4],completely stable; also recorded: not affected by the hydrolytic activity of FAAH and MAGL
same,effect in LPS-induced endotoxemia,BALB/c mice [5],protective effects
same,head dipping frequency,C57BL6/N mice,significantly increased
same,melting point,,112 °C
same,inhibition of major serine hydrolases in vivo,major serine hydrolases,did not inhibit
same,cell membrane penetration,[6],does not significantly penetrate cell membranes
same,spontaneous motor activity,BALB/c mice [7],without significant observable changes
same,inhibition of EC release,[8],20%
same,effect on EC release,"[8]; cells stimulated with ATP, thapsigargin and ionomycin",blocked the release of both ECs
same,effect on AEA efflux,[8]; pre-loaded U937 cells,inhibited the efflux of AEA
same,clearance,"[9]; 1 μM, preliminary",0.174 mL/min/kg
same,bioavailability at 1 μM,"[9]; mouse, mice, from microsomal clearance, read-out: estimated maximal bioavailability",17%
same,Ki,CB2 receptor,48 µM
